For 33 molecules, IC50 results are on record in patent US9145392B2, “Imidazole amines as modulators of kinase activity” (Merck Patent GmbH, priority 2011, dated 2015).

One assay concerns the target P70S6K (T412E mutant) (Homo sapiens (Human), UniProt P23443, T412E). In words: P70S6K enzyme assay. The settings on record: read-out: IC50 p70S6K. Type of assay: biochemical. In outline: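 Read-out is the substrate/phosphopeptide ratio from mobility-shift electrophoresis on a LabChip 3000.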
In the next assay the target is His-AKT (Full Length) (Homo sapiens (Human), UniProt P31749). Kind of assay: AKT enzyme assay. To be noted: read-out: IC50 AKT. Type of assay: biochemical.
Sequence of His-AKT (Full Length) (P31749 whole entry): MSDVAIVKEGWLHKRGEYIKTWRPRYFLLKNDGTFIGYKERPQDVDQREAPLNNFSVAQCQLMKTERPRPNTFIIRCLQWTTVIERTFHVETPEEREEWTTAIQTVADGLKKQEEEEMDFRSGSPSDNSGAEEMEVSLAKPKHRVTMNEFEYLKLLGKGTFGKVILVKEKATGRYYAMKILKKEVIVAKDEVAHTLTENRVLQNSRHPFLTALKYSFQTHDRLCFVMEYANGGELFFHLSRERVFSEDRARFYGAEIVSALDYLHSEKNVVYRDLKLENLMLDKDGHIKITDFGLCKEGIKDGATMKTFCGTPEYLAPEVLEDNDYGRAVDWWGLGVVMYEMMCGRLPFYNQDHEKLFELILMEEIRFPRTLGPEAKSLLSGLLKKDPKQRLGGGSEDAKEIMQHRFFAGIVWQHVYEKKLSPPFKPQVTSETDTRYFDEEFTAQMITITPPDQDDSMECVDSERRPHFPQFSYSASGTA

Sequence of P70S6K (T412E mutant) (P23443 whole entry T412E): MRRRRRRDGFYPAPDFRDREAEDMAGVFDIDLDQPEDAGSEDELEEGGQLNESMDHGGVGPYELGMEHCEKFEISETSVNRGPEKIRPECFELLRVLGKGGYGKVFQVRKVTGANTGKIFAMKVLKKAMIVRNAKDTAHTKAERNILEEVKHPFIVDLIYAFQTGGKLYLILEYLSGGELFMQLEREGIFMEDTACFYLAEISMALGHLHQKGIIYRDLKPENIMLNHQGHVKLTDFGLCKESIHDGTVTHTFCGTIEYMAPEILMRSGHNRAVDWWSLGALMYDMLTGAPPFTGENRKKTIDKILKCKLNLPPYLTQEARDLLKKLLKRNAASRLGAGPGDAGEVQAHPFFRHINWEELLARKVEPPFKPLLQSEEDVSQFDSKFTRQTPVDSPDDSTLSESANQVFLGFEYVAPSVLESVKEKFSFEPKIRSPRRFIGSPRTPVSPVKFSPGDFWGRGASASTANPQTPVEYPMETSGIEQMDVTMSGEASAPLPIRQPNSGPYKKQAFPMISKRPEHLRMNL

On to `N#Cc1c(N)ncnc1N1CCC(c2nc(-c3ccccc3)cn2CCN2CCC2)CC1` [Compound 131, 4-amino-6-(4-(1-(2-(azetidin-1-yl)ethyl)-4-phenyl-1H-imidazol-2-yl)piperidin-1-yl)pyrimidine-5-carbonitrile], for which the IC50 on P70S6K (T412E mutant) was 5.7 nM; on His-AKT (Full Length), 165 nM.
Taken in the same sequence, the figures for `CN(C)CCn1cc(-c2ccc(F)c(C(F)(F)F)c2)nc1C1CCN(c2ncnc(N)c2C#N)CC1` [Compound 8, 4-Amino-6-{4-[1-(2-dimethylamino-ethyl)-4-(4-fluoro-3-trifluoromethyl-phenyl)-1H-imidazol-2-yl]-piperidin-1-yl}-pyrimidine-5-carbonitrile] were 1.8 nM and 9.1 nM.
As for `Cc1cc(-c2cn(CCN(C)C(C)C)c(C3CCN(c4ncnc(N)c4C(N)=O)CC3)n2)ccc1F` [Compound 385, 4-Amino-6-(4-{4-(4-fluoro-3-methyl-phenyl)-1-[2-(isopropyl-methyl-amino)-ethyl]-1H-imidazol-2-yl}-piperidin-1-yl)-pyrimidine-5-carboxylic acid amide], the values for the IC50 on P70S6K (T412E mutant) and at His-AKT (Full Length) were 6.2 nM and 42 nM, respectively.
For `Nc1ncnc(N2CCC(c3nc(-c4ccc(F)c(C(F)(F)F)c4)cn3CCN3CCCC3)CC2)c1Cl` [Compound 209], in that order: 3.1 nM and 2.2 nM.
Taken in the same sequence, the figures for `CNCCn1cc(-c2ccc(F)c(C)c2)nc1C1CCN(c2ncnc(N)c2C#N)CC1` [Compound 394, 4-Amino-6-{4-[4-(4-fluoro-3-methyl-phenyl)-1-(2-methylamino-ethyl)-1H-imidazol-2-yl]-piperidin-1-yl}-pyrimidine-5-carbonitrile] were 0.9 nM and 1.7 nM.
Taken in the same sequence, the figures for `CC(C)Oc1c(N)ncnc1N1CCC(c2nc(-c3ccc(F)c(C(F)(F)F)c3)cn2CCN2CCC2)CC1` [Compound 96, 6-(4-(1-(2-(azetidin-1-yl)ethyl)-4-(4-fluoro-3-(trifluoromethyl)phenyl)-1H-imidazol-2-yl)piperidin-1-yl)-5-isopropoxypyrimidin-4-amine] were 5.3 nM and 7.9 nM.
For the molecule `C=Cc1c(N)ncnc1N1CCC(c2nc(-c3ccc(F)cc3)cn2CCN2CCCC2)CC1` [Compound 241], the IC50 at P70S6K (T412E mutant) stood at 2.9 nM; on His-AKT (Full Length) it was 16 nM.
Taken in the same sequence, the figures for `CCN(CC)CCn1cc(-c2ccc(F)c(C)c2)nc1C1CCN(c2ncnc(N)c2C#N)CC1` [Compound 326] were 2.7 nM and 2.5 nM.
As to `CCc1c(N)ncnc1N1CCC(c2nc(-c3ccc(F)c(C(F)(F)F)c3)cn2CCN2CCCC2)CC1` [Compound 208], the IC50 at P70S6K (T412E mutant) turned out to be 3.2 nM; at His-AKT (Full Length), 7.6 nM.
Taken in the same sequence, the figures for `CCc1c(N)ncnc1N1CCC(c2nc(-c3cccc(C(F)(F)F)n3)cn2CCN2CCC2)CC1` [Compound 119, 6-(4-(1-(2-(azetidin-1-yl)ethyl)-4-(6-(trifluoromethyl)pyridin-2-yl)-1H-imidazol-2-yl)piperidin-1-yl)-5-ethylpyrimidin-4-amine] were 25 nM and 420 nM.
Taken in the same sequence, the figures for `CCN(CC)CCn1cc(-c2ccc(F)c(C)c2)nc1C1CCN(c2ncnc(N)c2OC(C)C)CC1` [Compound 304] were 4.6 nM and 2.6 nM.
For `Cc1cc(-c2cn(CC3CNC3)c(C3CCN(c4ncnc(N)c4C#N)CC3)n2)ccc1F` [Compound 191, 4-amino-6-(4-(1-(azetidin-3-ylmethyl)-4-(4-fluoro-3-methylphenyl)-1H-imidazol-2-yl)piperidin-1-yl)pyrimidine-5-carbonitrile], in that order: 7.4 nM and 15 nM.
As for `Nc1ncnc(N2CCC(c3nc(-c4ccc(F)c(C(F)(F)F)c4)cn3CCN3CCCC3)CC2)c1-c1ccc(F)c(F)c1` [Compound 59], the IC50 on P70S6K (T412E mutant) stood at 9.6 nM; on His-AKT (Full Length) it was 110 nM.
For `CCc1c(N)ncnc1N1CCC(c2nc(-c3ccc(F)cc3)cn2CCN2CCCC2)CC1` [Compound 232], in that order: 2.3 nM and 20 nM.
Consider `Nc1ncnc(N2CCC(c3nc(-c4ccc(F)c(C(F)(F)F)c4)c[nH]3)CC2)c1-c1ccc(F)cc1` [Compound 44, 5-(4-Fluoro-phenyl)-6-{4-[4-(4-fluoro-3-trifluoromethyl-phenyl)-1H-imidazol-2-yl]-piperidin-1-yl}-pyrimidin-4-ylamine], for which the IC50 on P70S6K (T412E mutant) came out at 2.4 nM; on His-AKT (Full Length) it was 9500 nM.
`CCc1c(N)ncnc1N1CCC(c2nc(-c3ccc(F)c(Cl)c3)cn2CCN2CCC2)CC1` [Compound 281]: the IC50 on P70S6K (T412E mutant) was 3.9 nM; on His-AKT (Full Length), 9.2 nM.
For `CCc1c(N)ncnc1N1CCC(c2nc(-c3ccc(F)c(C(F)(F)F)c3)cn2CCN2CC(C)C2)CC1` [Compound 93, 5-ethyl-6-(4-(4-(4-fluoro-3-(trifluoromethyl)phenyl)-1-(2-(3-methylazetidin-1-yl)ethyl)-1H-imidazol-2-yl)piperidin-1-yl)pyrimidin-4-amine], in that order: 3 nM and 7.7 nM.
For `NC(=O)c1c(N)ncnc1N1CCC(c2nc(-c3ccc(F)c(C(F)(F)F)c3)cn2C2CCNCC2)CC1` [Compound 154, 4-amino-6-(4-(4-(4-fluoro-3-(trifluoromethyl)phenyl)-1-(piperidin-4-yl)-1H-imidazol-2-yl)piperidin-1-yl)pyrimidine-5-carboxamide], in that order: 3 nM and 480 nM.
Taken in the same sequence, the figures for `CC(C)NCCn1cc(-c2ccc(F)c(C(F)(F)F)c2)nc1C1CCN(c2ncnc(N)c2C#N)CC1` [Compound 369, 4-Amino-6-{4-[4-(4-fluoro-3-trifluoromethyl-phenyl)-1-(2-isopropylamino-ethyl)-1H-imidazol-2-yl]-piperidin-1-yl}-pyrimidine-5-carbonitrile] were 3.6 nM and 5.4 nM.
With `N#Cc1c(N)ncnc1N1CCC(c2nc(-c3ccc(F)c(C(F)(F)F)c3)cn2CCN2CCCCC2)CC1` [Compound 312], the IC50 came out at 1.9 nM on P70S6K (T412E mutant) and 2.3 nM on His-AKT (Full Length).
Taken in the same sequence, the figures for `Cn1cc(-c2ccc(F)c(C(F)(F)F)c2)nc1C1CCN(c2ncnc(N)c2-c2ccncc2)CC1` [Compound 39, 6-{4-[4-(4-Fluoro-3-trifluoromethyl-phenyl)-1-methyl-1H-imidazol-2-yl]-piperidin-1-yl}-5-pyridin-4-yl-pyrimidin-4-ylamine] were 1.4 nM and 860 nM.
`Cc1cc(-c2cn(CCNC(C)(C)C)c(C3CCN(c4ncnc(N)c4-c4cn[nH]c4)CC3)n2)ccc1F` [Compound 165, 6-(4-(1-(2-(tert-butylamino)ethyl)-4-(4-fluoro-3-methylphenyl)-1H-imidazol-2-yl)piperidin-1-yl)-5-(1H-pyrazol-4-yl)pyrimidin-4-amine]: the IC50 was found to be 2.8 nM at P70S6K (T412E mutant) and 5.5 nM on His-AKT (Full Length).
Taken in the same sequence, the figures for `NC(=O)c1c(N)ncnc1N1CCC(c2nc(C3CCCCC3)cn2CCN2CCC2)CC1` [Compound 80, 4-Amino-6-{4-[1-(2-azetidin-1-yl-ethyl)-4-cyclohexyl-1H-imidazol-2-yl]-piperidin-1-yl}-pyrimidine-5-carboxylic acid amide] were 95 nM and 1400 nM.
Taken in the same sequence, the figures for `Nc1ncnc(N2CCC(c3nc(-c4ccnc(C(F)(F)F)c4)cn3CCNC3CC3)CC2)c1Cl` [Compound 173, 5-chloro-6-(4-(1-(2-(cyclopropylamino)ethyl)-4-(2-(trifluoromethyl)pyridin-4-yl)-1H-imidazol-2-yl)piperidin-1-yl)pyrimidin-4-amine] were 2.8 nM and 3.6 nM.
For `CN(C)CCn1cc(-c2ccc(F)c(C(F)(F)F)c2)nc1C1CCN(c2ncnc(N)c2C2=CCCC2)CC1` [Compound 90], in that order: 3.1 nM and 31 nM.
For `Cc1cc(-c2cn(CCN3CCCC3)c(C3CCN(c4ncnc(N)c4C(N)=O)CC3)n2)ccc1F` [Compound 350], the IC50 worked out at 2.3 nM at P70S6K (T412E mutant) and 10 nM at His-AKT (Full Length).
For `CC(C)N(C)CCn1cc(-c2ccc(F)c(C(F)(F)F)c2)nc1C1CCN(c2ncnc(N)c2C(N)=O)CC1` [Compound 361, 4-Amino-6-(4-{4-(4-fluoro-3-trifluoromethyl-phenyl)-1-[2-(isopropyl-methyl-amino)-ethyl]-1H-imidazol-2-yl}-piperidin-1-yl)-pyrimidine-5-carboxylic acid amide], in that order: 6.4 nM and 11 nM.
Taken in the same sequence, the figures for `N#Cc1c(N)ncnc1N1CCC(c2nc(-c3ccnc(C(F)(F)F)c3)cn2CCN2CCC2)CC1` [Compound 125, 4-amino-6-(4-(1-(2-(azetidin-1-yl)ethyl)-4-(2-(trifluoromethyl)pyridin-4-yl)-1H-imidazol-2-yl)piperidin-1-yl)pyrimidine-5-carbonitrile] were 1.5 nM and 9.7 nM.
For `NC(=O)c1c(N)ncnc1N1CCC(c2nc(-c3ccc(F)c(C(F)(F)F)c3)cn2CCO)CC1` [Compound 395, 4-Amino-6-{4-[4-(4-fluoro-3-trifluoromethyl-phenyl)-1-(2-hydroxy-ethyl)-1H-imidazol-2-yl]-piperidin-1-yl}-pyrimidine-5-carboxylic acid amide], in that order: 1.6 nM and 180 nM.
On to `Nc1ncnc(N2CCC(c3nc(-c4ccc(C(F)(F)F)c(F)c4)cn3CCN3CCCC3)CC2)c1C1CCC1` [Compound 258], for which the IC50 at P70S6K (T412E mutant) worked out at 36 nM; on His-AKT (Full Length) it was 380 nM.
Turning to `Nc1ncnc(N2CCC(c3nc(-c4ccnc(C(F)(F)F)c4)cn3CCN3CCC3)CC2)c1Cl` [Compound 144, 6-(4-(1-(2-(azetidin-1-yl)ethyl)-4-(2-(trifluoromethyl)pyridin-4-yl)-1H-imidazol-2-yl)piperidin-1-yl)-5-chloropyrimidin-4-amine], the values for the IC50 on P70S6K (T412E mutant) and on His-AKT (Full Length) were 1.1 nM and 2.5 nM, respectively.
For `N#Cc1c(N)ncnc1N1CCC(c2nc(-c3ccc(F)c(F)c3)cn2CCN2CCC2)CC1` [Compound 313], in that order: 1.6 nM and 9.3 nM.
Taken in the same sequence, the figures for `Nc1ncnc(N2CCC(c3nc(-c4ccc(C(F)(F)F)c(F)c4)cn3CCN3CCCC3)CC2)c1C1CCC1` [Compound 254] were 8.1 nM and 9.1 nM.
